The values that follow come from patent US20240209334A1, “SMALL-MOLECULE-ACTIVATED GLYCAN MODIFYING ENZYMES AND USES THEREOF” (President and Fellows of Harvard College, priority 2022, published 2024).

What all share (format): cell-based, human
The subject of assay [1] is MCF7-C181 cells. Put plainly: Apoptosis, Annexin V/DAPI flow cytometry. As to conditions: 10 μM 4-HT for 24 hours. The source says:
(§1) In addition to serving as an activator for intein splicing, 4-HT is also known as the active metabolite of tamoxifen, an FDA-approved drug for treating breast cancer patients. Breast cancer cells also have elevated OGT expression (39) and decreased levels of OGA (40, 41), resulting in elevated O-GlcNAcylation in the proteome. OGT is usually required for tumor growth and metastasis (39), and low OGA expression is correlated with poor survival in breast cancer patients (FIG. 13). The ER positive breast cancer-derived MCF-7 cell line is sensitive to tamoxifen and 4-HT, resulting in suppression of cell proliferation, yet drug resistance occurs after long-term treatment (42). […] To determine if reduction of O-GlcNAc sensitized MCF-7 cells to 4-HT treatment, it was assessed whether 4-HT induced inhibition of breast cancer cell proliferation and OGA-intein activation worked synergistically to accelerate cell death (FIG. 5A). […] Next, these two cell lines were treated with 4-HT at increasing concentrations, and cell viability was measured after 48 hours. […] Given that 4-HT promoted MCF-7 cell death through apoptosis (43), the apoptosis of these cells under 4-HT treatment was further analyzed through flow cytometry analyses following Annexin V and DAPI staining. […]
(§2) Detection of cell apoptosis. […] Data was analyzed by FlowJo v10.
(Flow cytometry measures light scatter and fluorescence of single cells or particles in a stream.)

The next assay concerns MCF7-C181_D174N. Put plainly: Apoptosis, Annexin V/DAPI flow cytometry. As to conditions: 10 μM 4-HT for 24 hours.
Description: as §1, §2

Another assay has as its system regular MCF-7 cells. Put plainly: Cell viability, CCK-8 assay. As to conditions: 48 hours.
Description: as §1
(§3) Cell viability assay. Cell viability was assessed by CCK-8 assay. […]
On the technique in general: Formazan colour is commonly taken as a measure of viable cells.

Assay [2] has as its system MCF7-C181 cells. Put plainly: Cell viability, CCK-8 assay. As to conditions: 48 hours.
Description: as §1, §3

The next assay relates to MCF7-C181_D174N cells. Put plainly: Cell viability, CCK-8 assay. As to conditions: 48 hours.
Description: as §1, §3

Consider `CC/C(=C(\c1ccc(O)cc1)c1ccc(OCCN(C)C)cc1)c1ccccc1` [4-HT, 4-hydroxytamoxifen], for which the figures for the apoptotic cells in the assay with MCF7-C181 cells [1] and in the assay on MCF7-C181_D174N were 6.84% and 6.09%, respectively. For the same molecule, the “4-HT concentration required for suppressing survival” value in the assay on regular MCF-7 cells and in the assay with MCF7-C181_D174N cells was over 5 µM in each case. The “4-HT concentration giving almost complete cell survival inhibition” value with MCF7-C181 cells [2] was found to be 5 µM.
